{"source": "ChEMBL document CHEMBL4350952", "about": "“Evolution of PI3Kγ and δ Inhibitors for Inflammatory and Autoimmune Diseases” (J Med Chem, 2019)", "key": {"Rattus norvegicus [1]": {"species_on_record": "Rattus norvegicus", "assay": "Decrease in number of neutrophils in rat BAL at 20 ug, it at 8 hrs post dose relative to control", "assay_type": "functional", "design": "scale not given: the % may be the effect or the level left"}, "Mus musculus [2]": {"species_on_record": "Mus musculus", "assay": "Decrease in neutrophil influx reduction in mouse at 20 ug, it relative to control", "assay_type": "functional", "design": "scale not given: the % may be the effect or the level left"}, "Rattus norvegicus [3]": {"species_on_record": "Rattus norvegicus", "assay": "Decrease in number of neutrophils in rat BAL at 20 ug, it at 12 hrs post dose relative to control", "assay_type": "functional", "design": "scale not given: the % may be the effect or the level left"}, "Mus musculus [4]": {"species_on_record": "Mus musculus", "assay": "Decrease in eosinophil influx reduction in mouse at 20 ug, it relative to control", "assay_type": "functional", "design": "scale not given: the % may be the effect or the level left"}, "Mus musculus [5]": {"species_on_record": "Mus musculus", "assay": "Decrease in number of neutrophils in mouse BAL at 20 ug, it at 2 hrs post dose relative to control", "assay_type": "functional", "design": "scale not given: the % may be the effect or the level left"}, "Mus musculus [6]": {"species_on_record": "Mus musculus", "assay": "Decrease in neutrophil influx reduction in mouse at 1 ug, it relative to control", "assay_type": "functional", "design": "scale not given: the % may be the effect or the level left"}, "Mus musculus [7]": {"species_on_record": "Mus musculus", "assay": "Decrease in eosinophil influx reduction in mouse at 1 ug, it relative to control", "assay_type": "functional", "design": "scale not given: the % may be the effect or the level left"}, "Rattus norvegicus [8]": {"species_on_record": "Rattus norvegicus", "assay": "Decrease in number of neutrophils in rat BAL at 5 ug, it at 2 hrs post dose relative to control", "assay_type": "functional", "design": "scale not given: the % may be the effect or the level left"}, "Mus musculus [9]": {"species_on_record": "Mus musculus", "assay": "Decrease in number of neutrophils in mouse BAL at 4 ug, it at 12 hrs post dose relative to control", "assay_type": "functional", "design": "scale not given: the % may be the effect or the level left"}, "Mus musculus [10]": {"species_on_record": "Mus musculus", "assay": "Decrease in number of neutrophils in mouse BAL at 1 ug, it at 2 hrs post dose relative to control", "assay_type": "functional", "design": "scale not given: the % may be the effect or the level left"}, "Rattus norvegicus [11]": {"species_on_record": "Rattus norvegicus", "assay": "Decrease in number of neutrophils in rat BAL at 20 ug, it at 2 hrs post dose relative to control", "assay_type": "functional", "design": "scale not given: the % may be the effect or the level left"}, "Rattus norvegicus [12]": {"species_on_record": "Rattus norvegicus", "assay": "Decrease in number of neutrophils in rat BAL at 100 ug, it at 2 hrs post dose relative to control", "assay_type": "functional", "design": "scale not given: the % may be the effect or the level left"}, "U-937": {"tested_on": "U-937", "assay": "cells", "assay_type": "functional, cell-based", "conditions": "Homo sapiens", "description": "Cytotoxicity against in human U937 cells"}, "Mus musculus [13]": {"species_on_record": "Mus musculus", "assay": "Decrease in number of neutrophils in mouse BAL at 4 ug, it at 2 hrs post dose relative to control", "assay_type": "functional", "design": "scale not given: the % may be the effect or the level left"}, "Mus musculus [14]": {"species_on_record": "Mus musculus", "assay": "Decrease in eosinophil influx reduction in mouse at 4 ug, it relative to control", "assay_type": "functional", "design": "scale not given: the % may be the effect or the level left"}, "Mus musculus [15]": {"species_on_record": "Mus musculus", "assay": "Decrease in neutrophil influx reduction in mouse at 4 ug, it relative to control", "assay_type": "functional", "design": "scale not given: the % may be the effect or the level left"}, "Homo sapiens": {"species_on_record": "Homo sapiens", "assay": "Selectivity ratio of IC50 for PI3Kbeta in human U937 cells to IC50 for GST-tagged PI3Kdelta in human U937 cells", "assay_type": "cell-based"}, "Mus musculus [16]": {"species_on_record": "Mus musculus", "assay": "Decrease in number of neutrophils in mouse BAL at 4 ug, it at 8 hrs post dose relative to control", "assay_type": "functional", "design": "scale not given: the % may be the effect or the level left"}}}
{"smiles": "COCCOCCOCC#Cc1cccc2nc(Cn3nc(-c4cc(O)cc(F)c4)c4c(N)ncnc43)n(Cc3ccccc3C(F)(F)F)c(=O)c12", "values": [{"measurement": "Activity", "setting": "Rattus norvegicus [1]", "result": 33, "unit": "%"}, {"measurement": "Activity", "setting": "Mus musculus [2]", "result": 80, "unit": "%"}, {"measurement": "Activity", "setting": "Rattus norvegicus [3]", "result": 10, "unit": "%"}, {"measurement": "Activity", "setting": "Mus musculus [4]", "result": 91, "unit": "%"}, {"measurement": "Activity", "setting": "Mus musculus [5]", "result": 68, "unit": "%"}, {"measurement": "Activity", "setting": "Mus musculus [6]", "result": 18, "unit": "%"}, {"measurement": "Activity", "setting": "Mus musculus [7]", "result": 20, "unit": "%"}, {"measurement": "Activity", "setting": "Rattus norvegicus [8]", "result": 9, "unit": "%"}, {"measurement": "Activity", "setting": "Mus musculus [9]", "result": 23, "unit": "%"}, {"measurement": "Activity", "setting": "Mus musculus [10]", "result": 19, "unit": "%"}, {"measurement": "Activity", "setting": "Rattus norvegicus [11]", "result": 58, "unit": "%"}, {"measurement": "Activity", "setting": "Rattus norvegicus [12]", "result": 73, "unit": "%"}, {"measurement": "IC50", "setting": "U-937", "result": 7.4, "unit": "nM"}, {"measurement": "Activity", "setting": "Mus musculus [13]", "result": 53, "unit": "%"}, {"measurement": "Activity", "setting": "Mus musculus [14]", "result": 85, "unit": "%"}, {"measurement": "Activity", "setting": "Mus musculus [15]", "result": 70, "unit": "%"}, {"measurement": "Ratio IC50", "setting": "Homo sapiens", "result": 2000}, {"measurement": "Activity", "setting": "Mus musculus [16]", "result": 45, "unit": "%"}]}
